One data set concerns the target T1, RNase A (Bos taurus, UniProt P61823).
T1 sequence (P61823 27-150): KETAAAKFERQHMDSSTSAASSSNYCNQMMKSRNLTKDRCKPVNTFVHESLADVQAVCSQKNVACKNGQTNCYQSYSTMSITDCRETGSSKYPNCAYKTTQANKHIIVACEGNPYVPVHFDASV
Briefly: Glycan array screening for RNase A ligands. In kind it is binding, cow. The settings on record: printed glycan array, Figure 1.

For another data set, the system named is human leukemia cells. The settings on record: read-out: IC50 (cytotoxicity), ref [6],[15]; cited from earlier work.

In the case of `CC(=O)NC1C(OC2C(O)C(CO)OC(OC3C(CO)OC(OC4C(CO)OC(O)C(O)C4O)C(O)C3O)C2O)OC(CO)C(O)C1OC1OC(CO)C(O)C(O)C1O` (stereo not shown) [glycan 127, Galβ1–3GalNAcβ1–3Galα1–4Galβ1–4Glc], on RNase A, the “binding of RNase A to glycan in the array (in words)” value is recorded as “little affinity”.

Turning to “GalNAcβ1–3Galα1–4Galβ1–4GlcNAc [glycan 90]”, the “binding of RNase A to glycan in the array (in words)” value at RNase A is given as “did bind”.

B1: RNase A (G88R): RI-evasive cytotoxic G88R variant of RNase A (protein, UniProt P61823 27-150, looked up, variant G88R)
Ribonuclease pancreatic: KETAAAKFERQHMDSSTSAASSSNYCNQMMKSRNLTKDRCKPVNTFVHESLADVQAVCSQKNVACKNGQTNCYQSYSTMSITDCRETRSSKYPNCAYKTTQANKHIIVACEGNPYVPVHFDASV
By IC50 is commonly meant the point on the concentration scale where inhibition reaches its midpoint. For the molecule B1, the IC50 with human leukemia cells is 6.2 µM.

B2: DRRRD RNase 1: RI-evasive cytotoxic variant of RNase 1 (R39D/N67R/N88R/G89R/R91D) (protein, UniProt P07998 29-156, looked up, variant R39D N67R N88R G89R R91D)
Ribonuclease pancreatic: KESRAKKFQRQHMDSDSSPSSSSTYCNQMMRRRNMTQGDCKPVNTFVHEPLVDVQNVCFQEKVTCKRGQGNCYKSNSSMHITDCRLTRRSDYPNCAYRTSPKERHIIVACEGSPYVPVHFDASVEDST
For B2, in the data set with human leukemia cells, the IC50 is 10.8 µM.

(Values after article PMC4571170 (ACS Central Science, 2015).)
